Source: patent US20150175599A1, “FAAH Inhibitors” (Ironwood Pharmaceuticals, Inc., priority 2010, published 2015)

The compounds below were run against T1, human FAAH-1 (Homo sapiens, UniProt O00519) (assay: Whole cell anandamide hydrolysis assay (HeLa clone 5c5 transfected with human FAAH-1)). Conditions: HeLa clone 5c5 expressing human FAAH-1; read-out: human FAAH whole cell IC50.
T1 sequence (O00519 1-579): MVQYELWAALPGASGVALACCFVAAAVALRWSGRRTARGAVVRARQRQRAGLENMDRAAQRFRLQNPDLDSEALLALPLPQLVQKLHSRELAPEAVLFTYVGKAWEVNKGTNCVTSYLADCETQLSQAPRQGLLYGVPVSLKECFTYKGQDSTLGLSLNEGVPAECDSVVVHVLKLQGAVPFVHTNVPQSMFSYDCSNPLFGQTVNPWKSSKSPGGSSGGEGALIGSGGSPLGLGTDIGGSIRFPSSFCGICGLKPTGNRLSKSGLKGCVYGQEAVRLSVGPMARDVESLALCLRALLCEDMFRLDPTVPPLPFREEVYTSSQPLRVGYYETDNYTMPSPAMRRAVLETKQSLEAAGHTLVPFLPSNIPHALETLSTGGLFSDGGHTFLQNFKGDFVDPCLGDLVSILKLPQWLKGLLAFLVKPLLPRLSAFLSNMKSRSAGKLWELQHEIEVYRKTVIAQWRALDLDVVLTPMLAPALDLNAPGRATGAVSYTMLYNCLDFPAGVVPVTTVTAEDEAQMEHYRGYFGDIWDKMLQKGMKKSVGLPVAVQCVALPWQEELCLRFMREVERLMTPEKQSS
Type: cell-based
Method: FAAH activity was assayed in whole cells using methods disclosed previously (Maccarone et al., 1998 J Biol. Chem. 273:32332 and Bisogno et al., 1997 J Biol. Chem. 272:3315). In addition to the cell lines described in Maccarone et al. and Bisogno et al., MCF7 (ATCC designation HTB-22) and T84 (ATCC designation CCL-248) cell lines were also used in these assays.
cDNA expression clone for human FAAH-1 (in pcDNA3 vector) (Genbank Accession U82535; obtained from Benjamin Cravatt, Scripps Research Institute, La Jolla, Calif.) was linearized by digestion with BglII (New England Biolabs) and transfected by calcium phosphate into human HeLa cells (ATCC catalog #CCL-2). […] Following transfection, a stable HeLa-derived clone, designated 5c5, was isolated by single colony purification and expanded and maintained in modified Eagles medium (MEM; VWR catalog #45000-300) containing 10% fetal bovine serum (FBS), 2 mM L-glutamine, and 0.5 mg/mL G-418 (Sigma catalog #G5013).
Clone 5c5 (50,000 cells in 150 μL) was seeded into 96-well plates and incubated overnight (5% CO2, 37° C.). Media was carefully replaced with 180 μL DMEM/F12 medium (VWR catalog #45000-350) containing 15 mM HEPES, pH 7.4 and 0.1% fatty acid free BSA (Sigma catalog #A0281). Then, 2 μL of 100× desired final concentrations of certain exemplary compounds described herein were made up in DMSO, added to wells containing cells, and plates were incubated at 37° C. for 10 min. Next, 20 μL of 5 μM anandamide (Cayman catalog #90050) spiked with 8 μCi of anandamide-(ethanolamine-1-[^3H]) (American Radiolabeled Chemicals, Inc., catalog #ART 626) was added to the cells and the plates were incubated for an additional 15 min at 37° C. The reactions were terminated by chilling the plates on ice and adding 20 μL of 0.5M of potassium phosphate buffer (adjusted to pH 2.1 with phosphoric acid).
The acidified reactions were transferred to 96-well filter plates (0.25 mL capacity/well, 1.2 micron glass fiber pre-filter packed above 0.65 micron pore-size PVDF membrane, Millipore catalog MSFCN6B50) containing 25 μL charcoal (neutral activated carbon, Fisher Scientific catalog C170-500) per well. Prior to the assay, charcoal was measured and loaded onto the plate using an aluminum 96-well column loading device (Millipore catalog MACL09625). The filter plate was assembled over an empty 96-well plate (Costar) using a centrifuge alignment frame (Millipore catalog MACF09604) to allow for collection of the filtrate in the receiver plate. The charcoal glass-fiber filter plates were pre-washed with methanol by centrifugation 650×g for 10 min). Next, 80 μL of water was added to the wells of the pre-washed 96 well charcoal filter plate. Then, 90 μL of the acidified reaction mixture was added to the water in the wells of the charcoal plate. The samples were centrifuged as above. The substrate remained bound to the charcoal, whereas the [^3H]-ethanolamine product formed flowed through and was transferred to the microplates containing scintillation cocktail and quantified in a micro-plate scintillation counter (Perkin-Elmer Microbeta). Control reactions with either no cells or cells treated with DMSO alone were performed in triplicate and used to define background (no cells) and 100% activity (DMSO alone).
Following subtraction of background radioactivity, data were expressed as percent inhibition relative to 100% activity and fit with a nonlinear regression curve using GraphPad Prism Software (GraphPad Software Inc). IC50 values were calculated from the resulting dose-response curves constrained at top and bottom to 100% and 0%, respectively.

Structure (SMILES)	IC50 [nM]
COc1cc(NC(=O)C(=O)c2c(C)n(Cc3ccc(Cl)cc3)c3ccc(CN(C)C)cc23)ccn1 [Compound 26, 2-(1-(4-chlorobenzyl)-5-((dimethylamino)methyl)-2-methyl-1H-indol-3-yl)-N-(2-methoxypyridin-4-yl)-2-oxoacetamide]	< 100
C=Cc1ccc2c(c1)c(C(=O)C(=O)Nc1ccnc(OC)c1)c(C)n2Cc1ccc(Cl)cc1 [Compound 27, 2-(1-(4-chlorobenzyl)-2-methyl-5-vinyl-1H-indol-3-yl)-N-(2-methoxypyridin-4-yl)-2-oxoacetamide]	< 100
COc1cnc2c(c1)c(C(=O)C(=O)Nc1ccnc(OC)c1)c(C)n2Cc1ncc(Cl)cc1Cl [Compound 29, 2-(1-((3,5-dichloropyridin-2-yl)methyl)-5-methoxy-2-methyl-1H-pyrrolo[2,3-b]pyridin-3-yl)-N-(2-methoxypyridin-4-yl)-2-oxoacetamide]	< 100
COc1cc(NC(=O)C(=O)c2c(C)n(Cc3ncc(Cl)cc3Cl)c3ccc(C)cc23)ccn1 [Compound 30, 2-(1-((3,5-dichloropyridin-2-yl)methyl)-2,5-dimethyl-1H-indol-3-yl)-N-(2-methoxypyridin-4-yl)-2-oxoacetamide]	< 100
COc1cc(NC(=O)C(=O)c2c(C)n(Cc3ncc(Cl)cc3Cl)c3ccccc23)ccn1 [Compound 31, 2-(1-((3,5-dichloropyridin-2-yl)methyl)-2-methyl-1H-indol-3-yl)-N-(2-methoxypyridin-4-yl)-2-oxoacetamide]	< 100
COc1ccc(Cn2c(C)c(C(=O)C(=O)Nc3ccnc(OC)c3)c3cc(OC)c(F)cc32)nc1 [Compound 32, 2-(6-fluoro-5-methoxy-1-((5-methoxypyridin-2-yl)methyl)-2-methyl-1H-indol-3-yl)-N-(2-methoxypyridin-4-yl)-2-oxoacetamide]	< 100
COc1cc(NC(=O)C(=O)c2c(C)n(Cc3ncc(Cl)cc3F)c3ccc(C)cc23)ccn1 [Compound 33, 2-(1-((5-chloro-3-fluoropyridin-2-yl)methyl)-2,5-dimethyl-1H-indol-3-yl)-N-(2-methoxypyridin-4-yl)-2-oxoacetamide]	< 100
COc1cnc2c(c1)c(C(=O)C(=O)Nc1ccnc(OC)c1)c(C)n2Cc1ncc(Cl)cc1F [Compound 34, 2-(1-((5-chloro-3-fluoropyridin-2-yl)methyl)-5-methoxy-2-methyl-1H-pyrrolo[2,3-b]pyridin-3-yl)-N-(2-methoxypyridin-4-yl)-2-oxoacetamide]	< 100
COc1cc(NC(=O)C(=O)c2c(C)n(Cc3ccc(Cl)cc3)c3cnccc23)ccn1 [Compound 35, 2-(1-(4-chlorobenzyl)-2-methyl-1H-pyrrolo[2,3-c]pyridin-3-yl)-N-(2-methoxypyridin-4-yl)-2-oxoacetamide]	< 100
COc1cc(NC(=O)C(=O)c2c(C)n(Cc3ccc(Cl)cc3)c3ccc(OC)nc23)ccn1 [Compound 36, 2-(1-(4-chlorobenzyl)-5-methoxy-2-methyl-1H-pyrrolo[3,2-b]pyridin-3-yl)-N-(2-methoxypyridin-4-yl)-2-oxoacetamide]	< 100
COc1cc(NC(=O)C(=O)c2c(C)n(Cc3ccc(Cl)cc3)c3ccncc23)ccn1 [Compound 37, 2-(1-(4-chlorobenzyl)-2-methyl-1H-pyrrolo[3,2-c]pyridin-3-yl)-N-(2-methoxypyridin-4-yl)-2-oxoacetamide]	< 100
COc1cnc2c(c1)c(C(=O)C(=O)Nc1ccnc(OC)c1)c(C)n2Cc1ccc(Cl)cc1 [Compound 38, 2-(1-(4-chlorobenzyl)-5-methoxy-2-methyl-1H-pyrrolo[2,3-b]pyridin-3-yl)-N-(2-methoxypyridin-4-yl)-2-oxoacetamide]	< 100
COc1ccc2c(c1)c(C(=O)C(=O)Nc1ccnc(OC)c1)c(C)n2Cc1ccc(S(C)(=O)=O)cc1 [Compound 39, 2-(5-methoxy-2-methyl-1-(4-(methylsulfonyl)benzyl)-1H-indol-3-yl)-N-(2-methoxypyridin-4-yl)-2-oxoacetamide]	1000 to 10000
COc1ccc(Cn2c(C)c(C(=O)C(=O)Nc3ccnc(OC)c3)c3cc(OC)cnc32)nc1 [Compound 40, 2-(5-methoxy-1-((5-methoxypyridin-2-yl)methyl)-2-methyl-1H-pyrrolo[2,3-b]pyridin-3-yl)-N-(2-methoxypyridin-4-yl)-2-oxoacetamide]	< 100
COc1cnc2c(c1)c(C(=O)C(=O)Nc1ccnc(OC)c1)c(C)n2Cc1ccc(Cl)cn1 [Compound 41, 2-(1-((5-chloropyridin-2-yl)methyl)-5-methoxy-2-methyl-1H-pyrrolo[2,3-b]pyridin-3-yl)-N-(2-methoxypyridin-4-yl)-2-oxoacetamide]	< 100
COc1cnc2c(c1)c(C(=O)C(=O)Nc1ccnc(OC)c1)c(C)n2Cc1ccc(Cl)cc1Cl [Compound 42, 2-(1-(2,4-dichlorobenzyl)-5-methoxy-2-methyl-1H-pyrrolo[2,3-b]pyridin-3-yl)-N-(2-methoxypyridin-4-yl)-2-oxoacetamide]	< 100
COc1ccc(Cn2c(C)c(C(=O)C(=O)Nc3ccnc(OC)c3)c3cc(OC)ccc32)nc1 [Compound 43, 2-(5-methoxy-1-((5-methoxypyridin-2-yl)methyl)-2-methyl-1H-indol-3-yl)-N-(2-methoxypyridin-4-yl)-2-oxoacetamide]	< 100
COc1cc(NC(=O)C(=O)c2c(C)n(Cc3ccc(Cl)cc3)c3cc(OC)c(OC)cc23)ccn1 [Compound 44, 2-(1-(4-chlorobenzyl)-5,6-dimethoxy-2-methyl-1H-indol-3-yl)-N-(2-methoxypyridin-4-yl)-2-oxoacetamide]	< 100
COc1cc(NC(=O)C(=O)c2c(C)n(Cc3ccc(Cl)cc3)c3cccc(OC)c23)ccn1 [Compound 45, 2-(1-(4-chlorobenzyl)-4-methoxy-2-methyl-1H-indol-3-yl)-N-(2-methoxypyridin-4-yl)-2-oxoacetamide]	< 100
COc1ccc2c(c1)c(C(=O)C(=O)Nc1ccnc(OC)n1)c(C)n2Cc1ccc(Cl)cc1 [Compound 46, 2-(1-(4-chlorobenzyl)-5-methoxy-2-methyl-1H-indol-3-yl)-N-(2-methoxypyrimidin-4-yl)-2-oxoacetamide]	< 100
COc1ccc2c(c1)c(C(=O)C(=O)Nc1cc(Cl)nc(OC)c1)c(C)n2Cc1ccc(Cl)cc1 [Compound 47, N-(2-chloro-6-methoxypyridin-4-yl)-2-(1-(4-chlorobenzyl)-5-methoxy-2-methyl-1H-indol-3-yl)-2-oxoacetamide]	< 100
COc1ccc2c(C(=O)C(=O)Nc3ccnc(OC)c3)c(C)n(Cc3ccc(Cl)cc3)c2c1 [Compound 48, 2-(1-(4-chlorobenzyl)-6-methoxy-2-methyl-1H-indol-3-yl)-N-(2-methoxypyridin-4-yl)-2-oxoacetamide]	< 100
COc1ccc2c(c1)c(C(=O)C(=O)Nc1ccnc(O)c1)c(C)n2Cc1ccc(Cl)cc1 [Compound 50, 2-(1-(4-chlorobenzyl)-5-methoxy-2-methyl-1H-indol-3-yl)-N-(2-hydroxypyridin-4-yl)-2-oxoacetamide]	1000 to 10000
